Assay results taken from the NIST ThermoML archive (doi:10.1016/j.jct.2006.04.005).

Test: xn = mol fraction of the nth substance listed
Details: 303.15 K, 101 kPa, Liquid; for viscosity: Capillary tube (Ostwald / Ubbelohde) method; for excess molar volume: Direct dilatometry; for mass density: Pycnometric method

Clc1ccc(Cl)c(Cl)c1 [1,2,4-trichlorobenzene] + C[S+](C)[O-]
Details | excess molar volume [m3/mol] | mass density [kg/m3] | speed of sound [m/s] | viscosity [mPa·s]
x2 = 0 | – | 1442.14 | 1260 | 1.613
x2 = 0.0911 | 1.2e-08 | – | 1253 | 1.647
x2 = 0.1214 | 1.6e-08 | – | 1252 | 1.658
x2 = 0.1805 | 2.3e-08 | – | 1257 | 1.677
x2 = 0.2144 | 2.7e-08 | – | 1259 | 1.688
x2 = 0.251 | 3.2e-08 | – | 1264 | 1.699
x2 = 0.3225 | 3.9e-08 | – | 1274 | 1.719
x2 = 0.4115 | 4.6e-08 | – | 1285 | 1.742
x2 = 0.467 | 4.8e-08 | – | 1296 | 1.755
x2 = 0.5001 | 5e-08 | – | 1302 | 1.763
x2 = 0.5524 | 4.8e-08 | – | 1316 | 1.773
x2 = 0.6207 | 4.7e-08 | – | 1339 | 1.786
x2 = 0.7005 | 4e-08 | – | 1379 | 1.796
x2 = 0.7829 | 3e-08 | – | 1415 | 1.801
x2 = 0.8014 | 2.8e-08 | – | 1423 | 1.802
x2 = 0.9228 | 1.2e-08 | – | 1459 | 1.803

Clc1ccccc1Cl [1,2-dichlorobenzene] + C[S+](C)[O-]
Details | excess molar volume [m3/mol] | mass density [kg/m3] | speed of sound [m/s] | viscosity [mPa·s]
x2 = 0 | – | 1299.24 | 1261 | 1.302
x2 = 0.104 | 2.3e-08 | – | 1264 | 1.379
x2 = 0.1511 | 3.3e-08 | – | 1268 | 1.409
x2 = 0.2041 | 4e-08 | – | 1274 | 1.443
x2 = 0.2506 | 4.7e-08 | – | 1279 | 1.472
x2 = 0.301 | 5.3e-08 | – | 1284 | 1.502
x2 = 0.4025 | 6e-08 | – | 1303 | 1.56
x2 = 0.4511 | 6.3e-08 | – | 1312 | 1.587
x2 = 0.521 | 6.5e-08 | – | 1329 | 1.623
x2 = 0.6511 | 5.8e-08 | – | 1367 | 1.686
x2 = 0.7221 | 5.3e-08 | – | 1394 | 1.719
x2 = 0.7519 | 4.9e-08 | – | 1403 | 1.73
x2 = 0.8002 | 4e-08 | – | 1417 | 1.751
x2 = 0.8514 | 3.5e-08 | – | 1435 | 1.766
x2 = 0.9019 | 2.3e-08 | – | 1446 | 1.782
x2 = 0.9405 | 1.3e-08 | – | 1457 | 1.782

Clc1cccc(Cl)c1 [1,3-dichlorobenzene] + C[S+](C)[O-]
Details | excess molar volume [m3/mol] | mass density [kg/m3] | speed of sound [m/s] | viscosity [mPa·s]
x2 = 0 | – | 1277.12 | 1242 | 1.025
x2 = 0.0801 | 1.6e-08 | – | 1244 | 1.107
x2 = 0.1124 | 2.2e-08 | – | 1248 | 1.14
x2 = 0.1506 | 2.7e-08 | – | 1253 | 1.181
x2 = 0.2075 | 3.5e-08 | – | 1256 | 1.232
x2 = 0.2511 | 4e-08 | – | 1268 | 1.273
x2 = 0.3162 | 4.5e-08 | – | 1387 | 1.329
x2 = 0.4219 | 5.3e-08 | – | 1395 | 1.419
x2 = 0.4507 | 5.5e-08 | – | 1305 | 1.445
x2 = 0.5005 | 5.6e-08 | – | 1345 | 1.487
x2 = 0.6224 | 5.4e-08 | – | 1370 | 1.586
x2 = 0.6819 | 5e-08 | – | 1399 | 1.632
x2 = 0.7517 | 4.3e-08 | – | 1416 | 1.68
x2 = 0.8015 | 3.5e-08 | – | 1431 | 1.715
x2 = 0.852 | 2.7e-08 | – | 1455 | 1.742
x2 = 0.9221 | 1.7e-08 | – | 1467 | 1.778

Cc1ccccc1Cl [2-chlorotoluene] + C[S+](C)[O-]
Details | excess molar volume [m3/mol] | mass density [kg/m3] | speed of sound [m/s] | viscosity [mPa·s]
x2 = 0 | – | 1072.81 | 1284 | 0.887
x2 = 0.104 | 1.1e-08 | – | 1303 | 1.013
x2 = 0.1845 | 2.1e-08 | – | 1324 | 1.123
x2 = 0.2141 | 2.5e-08 | – | 1330 | 1.16
x2 = 0.2552 | 2.9e-08 | – | 1343 | 1.209
x2 = 0.3075 | 3.3e-08 | – | 1352 | 1.266
x2 = 0.376 | 3.9e-08 | – | 1369 | 1.342
x2 = 0.4079 | 4.2e-08 | – | 1377 | 1.375
x2 = 0.5224 | 4.6e-08 | – | 1403 | 1.49
x2 = 0.551 | 4.5e-08 | – | 1410 | 1.518
x2 = 0.6005 | 4.2e-08 | – | 1422 | 1.564
x2 = 0.7241 | 3.1e-08 | – | 1446 | 1.667
x2 = 0.761 | 2.7e-08 | – | 1450 | 1.69
x2 = 0.8011 | 2.3e-08 | – | 1460 | 1.724
x2 = 0.8711 | 1.6e-08 | – | 1464 | 1.773

Cc1ccccc1[N+](=O)[O-] [2-nitrotoluene] + C[S+](C)[O-]
Details | excess molar volume [m3/mol] | mass density [kg/m3] | speed of sound [m/s] | viscosity [mPa·s]
x2 = 0 | – | 1153.24 | – | 1.911
x2 = 0.0815 | 2.3e-08 | – | 2039 | 1.903
x2 = 0.1525 | 5.4e-08 | – | 1986 | 1.896
x2 = 0.2422 | 9.3e-08 | – | 1922 | 1.888
x2 = 0.2913 | 1.13e-07 | – | 1888 | 1.883
x2 = 0.3415 | 1.28e-07 | – | 1849 | 1.878
x2 = 0.4026 | 1.45e-07 | – | 1807 | 1.872
x2 = 0.4505 | 1.55e-07 | – | 1773 | 1.867
x2 = 0.5119 | 1.58e-07 | – | 1731 | 1.861
x2 = 0.5523 | 1.59e-07 | – | 1704 | 1.857
x2 = 0.602 | 1.54e-07 | – | 1674 | 1.852
x2 = 0.6521 | 1.43e-07 | – | 1645 | 1.847
x2 = 0.7122 | 1.25e-07 | – | 1612 | 1.841
x2 = 0.7516 | 1.13e-07 | – | 1591 | 1.836
x2 = 0.8115 | 8.5e-08 | – | 1564 | 1.829
x2 = 0.9227 | 3.5e-08 | – | 1508 | 1.814

Cc1cccc(Cl)c1 [3-chlorotoluene] + C[S+](C)[O-]
Details | excess molar volume [m3/mol] | mass density [kg/m3] | speed of sound [m/s] | viscosity [mPa·s]
x2 = 0 | – | 1065.21 | 1280 | 0.78
x2 = 0.0868 | 1.2e-08 | – | 1300 | 1.02
x2 = 0.1205 | 1.7e-08 | – | 1308 | 1.073
x2 = 0.1911 | 2.8e-08 | – | 1324 | 1.164
x2 = 0.2207 | 3.1e-08 | – | – | 1.203
x2 = 0.261 | 3.7e-08 | – | 1342 | 1.249
x2 = 0.3125 | 4.1e-08 | – | 1356 | 1.305
x2 = 0.3829 | 4.7e-08 | – | 1372 | 1.38
x2 = 0.4156 | 4.9e-08 | – | 1382 | 1.415
x2 = 0.502 | 5.2e-08 | – | 1404 | 1.503
x2 = 0.5419 | 5e-08 | – | 1412 | 1.541
x2 = 0.6205 | 4.7e-08 | – | 1429 | 1.602
x2 = 0.7125 | 3.7e-08 | – | 1450 | 1.674
x2 = 0.7517 | 3.3e-08 | – | 1457 | 1.704
x2 = 0.824 | 2.5e-08 | – | 1468 | 1.735
x2 = 0.9246 | 1.3e-08 | – | 1469 | 1.783
